Assay results taken from US10899822B2, “Compositions comprising D-amino acid peptides and methods of production and use thereof for inhibiting autoantibodies” (The Board of Regents of the University of Oklahoma, priority 2013, dated 2021).
“Also recorded” adds a separate entry of the source. Marks after values point to notes of the source that are not given here. Square brackets hold non-standard residues; d marks the D form. Ends that are not written are not given here. Peptide text beside a SMILES is read from it.

What was measured:
[1] = In vitro stability in synthetic gastric fluid (SGF, pepsin+HCL, pH 1.2) at 37° C., HPLC; assay type: in vitro ADME; conditions: pH 1.2, 37° C.
Protocol: FIG. 13 graphically illustrates an in vitro stability analysis of the native and RID peptides in synthetic gastric fluid (SGF, pepsin+HCL, pH 1.2) at 37° C., as measured by HPLC. This Figure indicates the rate of proteolysis of the AT1R-ECL2 L-amino acid peptide and the AT1R-ECL2 RID peptide under these conditions.
In FIG. 13, the AT1R-ECL2 L-amino acid peptide and the AT1R-ECL2 RID peptide were each separately incubated in artificial gastric juice (SGF, pepsin+HCL, pH 1.2) at 37° C., and proteolysis of the peptides was measured by HPLC.

[2] = In vitro stability in human serum at 37° C., HPLC; assay type: in vitro ADME
[3] = system: β1AR-AAb; assay: Effective refractory period (ERP) in β1AR-immunized rabbits; assay type: in vivo, rabbit
Excerpt: FIG. 8 contains a flow chart depicting the protocol of the procedures performed in rabbits in a study to determine the effective refractory period (ERP) in atrial cells in rabbit-models with pre-immune, post-immune (β1AR-immunization), and post-immune plus β1AR-ECL2 RID peptide administration. The ERP inversely is one parameter of the susceptibility of the cardiac cells to induction of tachyarrhythmias.
(§1) The RID peptide was utilized in a study measuring the effective refractory period (ERP) in five New Zealand white rabbits. The procedures performed are outlined in the flow chart of FIG. 8. The ERP was measured during a pre-immune state and following immunization with β1AR ECL2 peptide to generate autoantibodies thereto, as described previously (Li et al. Am J Physiol Heart Circ Physiol. (2014) 306:H422-428). This was followed by administration of T4 (40 μg/kg), and an additive effect was observed on induced atrial tachyarrhythmias with the appearance of AF in a significant percentage of the T4 treated animals. […] In addition, the ERP in the rabbits was measured following administration of the β1AR-ECL2 RID peptide 90 minutes after T4.
FIG. 10 illustrates the mean ERP for an atrial catheter lead.

[4] = system: β1AR-AAb; assay: Heart rate and sustained arrhythmias in β1AR-AAb + T4 excess animals; assay type: in vivo, rabbit
Protocol: as §1

[5] = system: AT1R activating autoantibodies; assay: Isolated rat cremaster artery contractility induced by serum of AT1R 2nd ECL peptide immunized rabbits; set-up: species or system rabbit; conditions: with ARB losartan
Excerpt: FIG. 4, Panel A illustrates the dose related contractile effect of serum from an AT1R 2nd ECL peptide immunized rabbit on an isolated rat cremaster artery. The in vitro contractile changes were expressed as % change (decrease) in diameter with the increasing dosage concentration (dilution). These effects are blocked by the selective angiotensin II receptor blocker (ARB) losartan.
There was a significant increase of in vitro cremaster contractility (p<0.01) in the post-immune state compared to the pre-immune values.
FIG. 5 illustrates the effect of in vitro incubation of the RID peptide with serum containing AT1R activating autoantibodies (rabbit) on cremaster artery contractility. […] The same response was observed when the serum was pre-incubated with the L-amino acid target peptide (FIG. 5, Panel B).
Data provided herein were obtained with immunized rabbit serum containing autoantibodies that will stimulate AT1R receptors transfected into CHO cells. […] A bioassay for Angiotensin II-like activity using an isolated perfused cremaster artery in vitro has also been developed.

[6] = system: AT1R autoantibodies; assay: Binding of iodinated RID peptide to autoantibodies; conditions: iodine atom in the molecular structure
Protocol: While therapeutic methods of using the RID peptides have been envisioned above, the scope of the presently disclosed inventive concepts also includes diagnostic uses of the RID peptides as well. The studies shown in FIGS. 12 and 13 were conducted at high concentrations (>250 μg/ml), and these concentrations are too high for study of absorption and use as part of a direct assay of serum binding to autoantibodies.

[7] = rabbit, in vivo
[8] = system: β1AR-AAb; assay: cAMP production in β1AR-CHO cells stimulated by post-immune sera; assay type: cell-based, rabbit

Compound: C[C@H](N)C(=O)N[C@@H](Cc1ccccc1)C(=O)N[C@@H](Cc1c[nH]cn1)C(=O)N[C@@H](Cc1ccc(O)cc1)C(=O)N[C@@H](CCC(=O)O)C(=O)N[C@@H](CO)C(=O)N[C@@H](CCC(N)=O)C(=O)O [AT1R-ECL2 L-amino acid peptide, AFHYESQ, reference compound] (H-AFHYESQ-OH; N-terminus and C-terminus assumed)
- rate of proteolysis compared with the RID peptide [1]: proteolyzed at a much faster rate

Compound: C[C@@H](NC(=O)[C@@H](Cc1ccccc1)NC(=O)[C@@H](Cc1c[nH]cn1)NC(=O)[C@@H](Cc1ccc(O)cc1)NC(=O)[C@@H](CCC(=O)O)NC(=O)[C@@H](CO)NC(=O)[C@H](N)CCC(N)=O)C(=O)O [AT1R-ECL2 RID peptide, qseyhfa] (H-[dQ][dS][dE][dY][dH][dF][dA]-OH; N-terminus and C-terminus assumed)
- peptide remaining intact ([2]; 24 hours (data not shown)): 80%
- integrity at two hours [2]: resistance
- integrity at two hours ([2]; listed as AT2R-ECL2 RID peptide): remained intact
- integrity for four hours ([1]; four hours): remained intact
- remaining at 6 h ([1]; synthetic gastric fluid (SGF), six hours, read-out: peptide remaining): 60%

Compound: N[C@@H](Cc1cc(I)c(Oc2cc(I)c(O)c(I)c2)c(I)c1)C(=O)O [T4, thyroxine, reference compound]
- effect on ERP ([3]; post-immune + T4 (40 μg/kg), P<0.01): additive
- #sustained arrhythmias/#induction attempts ([4]; Post-immune + T4): 20/20**^#
- Heart rate ([4]; Post-immune + T4): 280 ± 56 beats/min
- Sustained AF ([4]; Post-immune + T4): 2/20
- Sustained AFL ([4]; Post-immune + T4): 0/20
- Sustained AT ([4]; Post-immune + T4): 2/20
- Sustained JT ([4]; Post-immune + T4): 2/20
- Sustained ST ([4]; Post-immune + T4): 11/20**
- Sustained VT ([4]; Post-immune + T4): 3/20

Compound: CCCCc1nc(Cl)c(CO)n1Cc1ccc(-c2ccccc2-c2nn[nH]n2)cc1 [losartan]
- contractile effect of immunized rabbit serum on isolated rat cremaster artery (% decrease in diameter) [5]: blocked

Compound: AT1R-ECL2 RID peptide has been iodinated: AT1R-ECL2 RID peptide directly iodinated; iodine atom in the structure blocked binding ([dQ][dS][dE][dY][dH][dF][dA]; also: directly iodinated, place not given here)
- binding to autoantibodies [6]: blocked binding

Compound: dcckpdnycr [β1AR-ECL2 RID peptide]
- anti-RID antibodies by ELISA (immunogenicity) [7]: failed to demonstrate anti-RID antibodies
- sera-induced β1AR activation of cAMP production in β1AR-transfected cells ([8]; sera pre-incubated with RID peptide, P<0.01): effectively blocked
- ability of post-immune sera to stimulate cAMP in β1AR-CHO cells ([8]; sera taken 90 after IV injection of 1 mg/Kg BW): marked reduction of the ability to stimulate cAMP
- effect on ERP (msec), right atrial lead ([3]; post-immune + RID peptide IV, over 90 minutes): dramatic rise in ERP; also recorded: reverses the shortening of the ERP
- effect on ERP ([3]; post-immune + T4 + RID peptide, 90 minutes after T4): reversed the β1AR-AAb effects but not the effect caused by T4
- #sustained arrhythmias/#induction attempts ([4]; Post-immune + T4 + β1AR-RID): 6/20*^++
- Heart rate ([4]; Post-immune + T4 + β1AR-RID): 241 ± 35**^##+ beats/min
- Sustained AF ([4]; Post-immune + T4 + β1AR-RID): 0/20
- Sustained AFL ([4]; Post-immune + T4 + β1AR-RID): 0/20
- Sustained AT ([4]; Post-immune + T4 + β1AR-RID): 1/20
- Sustained JT ([4]; Post-immune + T4 + β1AR-RID): 2/20
- Sustained ST ([4]; Post-immune + T4 + β1AR-RID): 3/20^+
- Sustained VT ([4]; Post-immune + T4 + β1AR-RID): 0/20
